The values that follow come from patent US4576760A, “Hydroquinone sulfate derivatives and production thereof” (Takeda Chemical Industries, Ltd., priority 1983, dated 1986).

One test concerns cAMP phosphodiesterase. Put plainly: Action of inhibiting cAMP phosphodiesterase (method of Butcher and Sutherland; inorganic phosphoric acid produced from cyclic AMP). The class given is biochemical. Conditions: phosphodiesterase from beef heart and 5'-nucleotidase. The method, then:
In accordance with the method of Butcher and Sutherland [J. Biol. Chem., 237, 1244 (1962)], the action of inhibiting cAMP phosphodiesterase was determined.
**Amounts of inorganic phosphoric acid produced by decomposition of cycli
AMP with phosphodiesterase from beef heart and 5nucleotidase.

A further test has as its system peroxidation of lipids. Briefly: Inhibition rate of peroxidation of lipids (method of Kornbrust and Mavis; malondialdehyde formed in homogenized rat livers with NADPH/Fe++). Type of test: biochemical. The conditions noted are these: homogenized livers of rats. On the procedure:
In accordance with the method of Kornbrust and Mavis [Mol. Pharm., 17, 400 (1980)], inhibition rate of peroxidation of lipids was determined.
Note*: Homogenized livers of rats were incubated in the presence of
NADPH/Fe^++. The amounts of malondialdehyde formed due to the
peroxidation of lipids were compared.

For `COc1c(O)c(C)c(CCCCCCCCCCO)c(OS(=O)(=O)O)c1OC` [6-(10-hydroxydecyl)-2,3-dimethoxy-5-methylhydroquinone 1-sulfate], the “Inhibition rate of phosphodiesterase” value with cAMP phosphodiesterase (1 × 10^-3 M) amounted to 89%; in the test on cAMP phosphodiesterase (5 × 10^-4 M), 70%. The figures for the “Inhibition Rate of Peroxidation of Lipids” value in the test with peroxidation of lipids (1 × 10^-4 M) and in the test on peroxidation of lipids (1 × 10^-5 M) were 59% and 28%, respectively.
